Measured values from US4665082A, “Cysteine delivery system” (Cornell Research Foundation, priority 1985, dated 1987).
“Also recorded” adds a separate entry of the source.

Assays:
5-oxo-L-prolinase [1] = molecular target: T1, 5-oxo-L-prolinase (Rattus norvegicus, UniProt P97608); experiment: Action of 5-oxo-L-prolinase on substrates (formation of ADP and amino acid); type: biochemical; conditions: for Reaction with the enzyme in the presence of ATP (formation of ADP and cysteine): incubation with 5-oxo-L-prolinase and ATP, FIG. 2: 5 mM substrate
T1 construct: 5-Oxo-L-prolinase was isolated from rat kidney and freed of 5-oxoproline by gel filtration; from tissue; host or cells: rat kidney
T1 sequence (P97608 1-1288): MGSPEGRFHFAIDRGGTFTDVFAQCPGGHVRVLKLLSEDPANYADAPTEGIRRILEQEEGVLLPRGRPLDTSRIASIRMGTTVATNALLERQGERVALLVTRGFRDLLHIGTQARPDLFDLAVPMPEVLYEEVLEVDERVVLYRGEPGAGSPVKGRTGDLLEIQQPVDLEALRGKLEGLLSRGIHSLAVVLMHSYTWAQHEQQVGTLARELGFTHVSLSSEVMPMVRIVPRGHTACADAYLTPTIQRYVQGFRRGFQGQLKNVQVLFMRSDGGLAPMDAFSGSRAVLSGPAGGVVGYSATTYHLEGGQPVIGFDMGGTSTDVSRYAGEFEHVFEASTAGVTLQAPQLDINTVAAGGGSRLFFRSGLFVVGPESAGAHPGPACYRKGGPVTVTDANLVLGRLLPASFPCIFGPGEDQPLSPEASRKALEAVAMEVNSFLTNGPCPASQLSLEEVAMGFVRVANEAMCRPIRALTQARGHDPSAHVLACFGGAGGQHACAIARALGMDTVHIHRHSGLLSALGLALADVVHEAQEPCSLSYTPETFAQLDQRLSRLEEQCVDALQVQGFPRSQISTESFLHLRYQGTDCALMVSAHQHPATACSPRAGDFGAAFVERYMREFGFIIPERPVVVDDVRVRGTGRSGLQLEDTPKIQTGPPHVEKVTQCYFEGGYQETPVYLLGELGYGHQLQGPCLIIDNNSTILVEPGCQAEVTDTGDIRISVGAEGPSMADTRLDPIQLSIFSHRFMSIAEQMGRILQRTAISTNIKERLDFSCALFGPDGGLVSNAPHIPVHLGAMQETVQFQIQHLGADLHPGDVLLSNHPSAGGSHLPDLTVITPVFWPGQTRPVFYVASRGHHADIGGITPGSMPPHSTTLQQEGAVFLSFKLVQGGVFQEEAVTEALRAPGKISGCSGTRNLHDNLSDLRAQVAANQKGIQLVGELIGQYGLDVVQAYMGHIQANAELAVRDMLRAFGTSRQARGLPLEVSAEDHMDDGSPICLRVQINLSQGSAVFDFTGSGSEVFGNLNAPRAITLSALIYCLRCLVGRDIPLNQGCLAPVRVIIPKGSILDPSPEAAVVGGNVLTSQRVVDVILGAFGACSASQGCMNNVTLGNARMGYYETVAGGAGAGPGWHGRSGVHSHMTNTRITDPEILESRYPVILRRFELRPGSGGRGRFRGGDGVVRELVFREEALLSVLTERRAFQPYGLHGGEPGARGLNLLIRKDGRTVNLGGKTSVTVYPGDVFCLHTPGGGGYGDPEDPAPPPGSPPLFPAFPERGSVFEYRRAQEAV
Experimental: (§1) In the experiments the reaction mixtures were made up to contain (final volume 0.5 ml) 100 mM Na Hepes (Na salt of N-2-hydroxyethylpiperizine-N'-2ethanesulfonic acid) buffer (pH 8.0), 150 mM KCl, 8 mM MgCl2, 2 mM phosphoenolpyruvate, 5 mM ATP (adenosine triphosphate), pyruvate kinase, in excess, 20 micrograms of 5-oxoprolinase, and the substrate as indicated.
(§2) The L- and D-isomers of 2-oxothiazolidine-4-carboxylate were synthesized by the method set out in Kaneko et al, Bull, Chem. Soc. (Japan) vol. 37, pp. 242-4 (1964) as modified by the method of Shah et al, Cancer Research vol. 39, pp. 3942-7 (1979). 5-Oxo-L-prolinase was isolated from rat kidney and freed of 5-oxoproline by gel filtration. Other chemicals and materials were obtained commercially.
(§3) After incubation for 30 min. at 37° C., the reaction mixtures were treated with 0.1 volume of 1M HCl, and placed at 0° C. for 5 min.; and an equivalent volume of 1M 2-amino-2-hydroxylmethyl-1,3,-propanediol was added. Portions were analyzed for amino acids by use of a Durrum Model 500 amino acid analyzer. Cysteine was also determined in some experiments by reaction with 5,5'-dithiobis(2-nitrobenzoate (DTNB).
At the indicated intervals portions were analyzed for ADP by the method indicated in the Table footnote, and for cysteine by reaction with DTNB.

5-oxo-L-prolinase [2] = molecular target: T1, 5-oxo-L-prolinase; experiment: Inhibition of utilization of 5-oxo-L-proline (glutamate formation) by the purified enzyme; type: biochemical; conditions: 1 mM 5-oxo-L-proline; under these conditions (1, 5, 10 mM)
Experimental: as §1, §2, §3
Energy for the reaction is supplied by the cleavage of ATP. […] The ratio of ADP to cysteine produced increased with time due undoubtedly to the loss of cysteine due to oxidation.

hepatic glutathione = experiment: Hepatic glutathione level after injection; type: in vivo, mice; conditions: for level of hepatic glutathione relative to controls: mice fasted overnight, intraperitoneal injection (Na salt, 6.5 mmol/kilo; D-isomer equivalent doses)
Experimental: The effect of injecting mice with L-2-oxothiazolidine-4-carboxylate on the level of hepatic glutathione was studied. […] The maximal effect was observed about 4 hours after injection. […] These findings are indicative of in vivo formation of cysteine after administration of L-2-oxothiazolidine-4-carboxylate.
Mice fastened overnight were injected intraperitoneally with NaCl (controls; dashed line) or with Na L-2-oxothiazolidine-4-carboxylate (6.5 mmol/kilo). At intervals, the mice were sacrificed and the excised liver was homogenized in 5 volumes of 1% picric acid. After centrifugation, the protein-free supernatant solutions were analyzed for glutathione by the method of Tietze, Anal. Biochem 27, 502-22 (1969). Analyses were carried out in duplicate. In a number of instances, these values were checked by the 2-vinylpyridine procedure of Griffith, Anal. Biochem. 106; 207-12 (1980); good agreement between the two methods was observed. In the figure, the points are mean values and the bars indicate the average deviation from the mean. The numbers in parentheses give the number of animals used. The value for the controls was 4.40±0.9 umol/g.

liver glutathione = experiment: Liver glutathione in animals depleted of hepatic glutathione (acetoaminophenol); type: in vivo; conditions: mice depleted of hepatic glutathione, compound given even two hours after acetoaminophenol
Experimental: Administration of this compound therefore provides a way of getting cysteine into cells. One cannot give cysteine itself without complications since this amino acid is toxic extracellularly. However, when the L-oxothiazolidine compound is injected it enters the cell where it is split giving rise to cysteine within the cell. In a number of clinical situations, for example, after poisoning with excessive pain-killing drugs, e.g., those containing active ingredients known as N-acetyl-para-aminophenol, paracetamol, and acetaminophen, the liver glutathione levels decrease markedly. When cysteine is supplied to liver cells, additional glutathione can be synthesized and thus serve usefully in detoxifying the offending drug. Therefore, L-2-oxothiazolidine-4-carboxylate serves as an intracellular delivery system for cysteine and has potential as a therapeutic agent in situations in which there is depletion of liver glutathione. After acetoaminophenol is given to experimental animals such as mice, the liver glutathione declines rapidly because it is extensively utilized by reaction with the drug. […] For human treatment the L-isomer, preferably in the form of its neutral salt is administered directly into the gastro-intestinal tract or introduced intravenously.

metabolism of glutamate = experiment: In vivo metabolism of L-[14C]glutamate (respiratory 14CO2); conditions: mice, injection of L-[14C]glutamate
Experimental: (§4) The in vitro results showing that L-2-oxothiazolidine-4-carboxylate inhibits utilization of 5-oxoproline were confirmed by in vivo experiments. In the latter, animals were injected with 5-oxo-L-[^14 C]proline and the respiratory [^14 CO2 ] produced was collected and measured for several hours. […] However, L-2-oxothiazolidine-4-carboxylate is a much more efficient inhibitor.
(§5) FIG. 3 depicts the inhibition of 5-oxoproline metabolism by L-2-oxothiazolidine-4-carboxylate. Mice fasted overnight were injected intraperitoneally with NaCl (Curve 1; open symbols; controls) or with Na L-2-oxothiazolidine-4-carboxylate (2.5 mmol/kilo) (Curve 2; closed symbols). After 10 min., the mice were injected subcutaneously with 5-oxo-L-[^14 C]proline (A) or with L-[^14 C]glutamate (B) (0.02 mmol; 1.1×10^6 cpm). The mice were then placed in metabolic chambers and the respiratory CO2 was collected in ethanolamine/methanol, 1:4 (vol/vol). In A, each curve represents the results on 3 animals; the points are mean values and the bars represent standard deviations from the mean. In B, each curve represents the average of closely-agreeing results obtained from 2 animals.

5-oxoproline metabolism = experiment: In vivo metabolism of 5-oxo-L-[14C]proline (respiratory 14CO2, urinary radioactivity); set-up: species or system mice
Experimental: as §4, §5

[3] = substrate 2 mM, 30 min at 37° C.

Compound: O=C1CC[C@@H](C(=O)O)N1 [5-Oxo-L-proline, 5-oxo-L-proline]
- calculated Vmax value (5-oxo-L-prolinase [1]; natural substrate compared with the L-isomer): higher than that found for the L-isomer

Compound: O=C1N[C@@H](C(=O)O)CS1 [D-2-oxothiazolidine-4-carboxylate]
- inhibition of glutamate formation (in words) (5-oxo-L-prolinase [2]): did not inhibit glutamate formation
- level of hepatic glutathione relative to controls (hepatic glutathione): No such stimulation was observed
- Reaction with the enzyme in the presence of ATP (formation of ADP and cysteine) (5-oxo-L-prolinase [1]; 5 mM ATP, listed as D-isomer): absence of reaction; also recorded: No reaction was observed
- Products Formed: Amino Acid (determined after reduction with KBH4 and reaction with iodoacetamide) (5-oxo-L-prolinase [1]; substrate 5 mM, footnote e: less than 20 nmol): 0 nmol

Compound: O=C1NC[C@@H](C(=O)O)N1 [L-2-imidazolidone-4-carboxylate]
- Products Formed: ADP (5-oxo-L-prolinase [1]; substrate 2 mM, 5 mM ATP, 20 micrograms enzyme, 30 min at 37° C., pH 8.0, pyruvate kinase-lactate dehydrogenase coupled assay): 930 nmol
- Products Formed: Amino Acid (5-oxo-L-prolinase [1]; substrate 2 mM, footnote f: less than 5 nmol): 0 nmol

Compound: O=C1N[C@H](C(=O)O)CS1 [L-2-oxothiazolidine-4-carboxylate]
- free cysteine in acid extracts of the livers (hepatic glutathione; amino acid analyses after reduction by dithiothreitol and derivatization with 2-vinylpyridine): No free cysteine was detected
- level of hepatic glutathione relative to controls (hepatic glutathione): about twice those of the controls
- apparent Km value (5-oxo-L-prolinase [1]; compared with the natural substrate 5-oxo-L-proline): somewhat lower than that found for the natural substrate
- Reaction with the enzyme in the presence of ATP (formation of ADP and cysteine) (5-oxo-L-prolinase [1]; 5 mM ATP): rapid formation of ADP and cysteine
- Products Formed: Amino Acid (after conversion to cystine) (5-oxo-L-prolinase [1]; [3]): 463 nmol
- Products Formed: Amino Acid (determined after reduction with KBH4 and reaction with iodoacetamide) (5-oxo-L-prolinase [1]; [3]): 466 nmol
- liver glutathione after depletion (liver glutathione): restoration of normal hepatic glutathione levels
- liver glutathione after depletion (liver glutathione; listed as L-isomer compound): an increase in liver glutathione occurs
- effect on the metabolism of glutamate (metabolism of glutamate): does not have a significant effect
- injected dose (radioactivity) excreted in urine (5-oxoproline metabolism; animals treated with L-isomer and injected with 5-oxo-L-[14C]proline, none in urine of controls): about 16%
- activity on a molar basis compared with L-2-imidazolidine-4-carboxylate (inhibition of 5-oxoproline metabolism in vivo) (5-oxoproline metabolism; in vivo comparison): at least four times more active
- formation of [14CO2] from injected 5-oxo-L-[14C]proline (5-oxoproline metabolism; mice, Na salt 2.5 mmol/kilo intraperitoneally, 10 min before 5-oxo-L-[14C]proline s.c.): marked decrease
